Data published in patent US20260125762A1, “METHODS OF IDENTIFYING AND TREATING TUMORS WITH SIGMA1 INHIBITORS” (Drexel University, priority 2016, published 2026).

How the values were obtained:
COLO205 = assay: NCI-60 single-dose in vitro growth inhibition assay; format: cell-based, human; details: single-dose 10 μM
Description: (§1) As in FIG. 1, Compound CT-110 was used in single-dose (10 μM) in vitro growth inhibition assays of the NCI-60 cell lines. The NCI-60 panel contains 60 diverse human cancer cell lines screened with more than 100,000 chemical compounds for anticancer activity since 1990 by the Developmental Therapeutics Program (DTP). See Huang, et al., 2005, Pharmacogenomics J. 5:381-99; Staunton, et al., 2001, PNAS USA 98(19):10787-92; Covell, et al., 2007, Mol. Cancer Ther. 6:2261-70; Potti, et al., 2006. Nat. Med. 12(11):1294-300. Standardization of NCI-60 inhibition data into Z-scores. NCI-60 cell line percent growth data obtained after culture in the presence of CT-110 were converted to percent growth inhibition by the formula 100−% Growth. A Z-score for each cell line data point was calculated using the formula (X-value minus 60-element array average)/(Array standard deviation). Z-scores are associated with a normal distribution and are used (1) to indicate where a score lies relative to the entire data set, above or below the mean, and (2) to compare scores derived from different normal distributions. Narrowing the 25K+ CellMiner genes to a CT-110 inhibition signature set of 6 genes. Pattern comparison searching yielded a list of 1,080 genes having significant Pearson correlations (r>0.334 or r<−0.334) to the NCI-60 Z-score profile of CT-110. Cross-referencing this profile-matching list with 1,106 cancer-relevant genes comprising a 755-gene PanCancer and Custom Codeset, supplemented with 545 “Cancer Driver” genes (Integrative OncoGenomics, BROAD Institute TARGET Database v3, Targeted Therapies for Cancer), reduced the number of genes to fifty (50). NCI-60-based Z-score profiles for these 50 genes were obtained using the CellMiner “Cell Line Signature Analysis” query. […] Z-scores, reflective of gene expression level and directionality, were used to identify forty-five (45) genes out of the […] (Table 3) that had expression either up or down in at least 4 out of the 5 CT-110-sensitive or resistant cell lines (assessed independently). […] These six genes (CDH1, CREB3L4, PIK3C2B, RNF43, SREBF1 and ZMYM2) are the end result of the rational approach to establish a focused set of genes, with expression profiles reflecting the growth inhibition profile of CT-110 in sensitive and resistant cancer cell lines.

SK-MEL-5 = assay: as above; format: cell-based, human; details: single-dose 10 μM
Description: as §1

SK-MEL-2 = assay: as above; format: cell-based, human; details: single-dose 10 μM
Description: as §1

MCF7 = assay: as above; format: cell-based, human; details: single-dose 10 μM
Description: as §1

SK-MEL-28 = assay: as above; format: cell-based, human; details: single-dose 10 μM
Description: as §1

OVCAR-3 = assay: as above; format: cell-based, human; details: single-dose 10 μM
Description: as §1

OVCAR-8 = assay: as above; format: cell-based, human; details: single-dose 10 μM
Description: as §1

HT29 = assay: as above; format: cell-based, human; details: single-dose 10 μM
Description: as §1

RPMI-8226 = assay: as above; format: cell-based, human; details: single-dose 10 μM
Description: as §1

UACC-257 = assay: as above; format: cell-based, human; details: single-dose 10 μM
Description: as §1

MDAMB231 = MDAMB231 orthotopic xenograft tumor growth; format: in vivo, female SCID Beige mice; details: MDAMB231 (predicted resistant) in mammary fat pad; 10 mg/kg ip q2d; treatment stopped Day 20
Description: (§2) MDAMB231 cells (ATCC, Manassas, VA, cat #HTB-26) were implanted orthotopically (2×10^6 per mouse) as a mixture in Matrigel (50%) into the mammary fat pad of female SCID Beige mice (10 mice per treatment arm) and grown to a volume of about 75 mm^3 prior to compound administration. CT-110 was dosed alone at 10 mg/kg ip, once every two days (ip, q2d) in 1% (weight/volume) sodium carboxymethyl cellulose/0.5% (volume/volume) Tween-80. A control group received vehicle alone (1% (weight/volume) sodium carboxymethyl cellulose/0.5% (volume/volume) Tween-80ip q2d). All drug treatment was stopped on Day 20. The major endpoint is to assess whether the tumor growth can be delayed or mice can be cured. Tumor sizes are measured twice weekly in two dimensions using a caliper, and the volume is expressed in mm^3 using the formula: V=0.5 a×b^2 where a and b are the long and short diameters of the tumor, respectively. The tumor sizes are then used for the calculations of both T-C and T/C values. T-C is calculated with T as the median time (in days) required for the treatment group tumors to reach a predetermined size (e.g., 1,000 mm^3), and C is the median time (in days) for the control group tumors to reach the same size. The T/C value (in percent) is an indication of antitumor effectiveness, T and C are the mean volume of the treated and control groups, respectively, on a given day.

BT474 = BT474 orthotopic xenograft tumor growth; format: in vivo, female SCID Beige mice; details: BT474 (predicted sensitive) in mammary fat pad; 10 mg/kg ip q2d; treatment stopped Day 30
Description: as §2, with “BT474” for “MDAMB231”, “#HTB-20)” for “#HTB-26)”, “125” for “75”, “30.” for “20.”

Compound: N=C(NCCCOc1ccc(F)cc1)Nc1ccc(Cl)cc1 [CT-110, 1-(3-(4-fluorophenoxy)propyl)-3-(4-chlorophenyl)guanidine]
- sensitivity to Sigma1 inhibition by CT-110 (growth inhibition rank in NCI-60) (COLO205): most sensitive
- sensitivity to Sigma1 inhibition by CT-110 (growth inhibition rank in NCI-60) (SK-MEL-5): most sensitive
- sensitivity to Sigma1 inhibition by CT-110 (growth inhibition rank in NCI-60) (SK-MEL-2): most resistant
- sensitivity to Sigma1 inhibition by CT-110 (growth inhibition rank in NCI-60) (MCF7): most sensitive
- sensitivity to Sigma1 inhibition by CT-110 (growth inhibition rank in NCI-60) (SK-MEL-28): most resistant
- sensitivity to Sigma1 inhibition by CT-110 (growth inhibition rank in NCI-60) (OVCAR-3): most resistant
- sensitivity to Sigma1 inhibition by CT-110 (growth inhibition rank in NCI-60) (OVCAR-8): most resistant
- sensitivity to Sigma1 inhibition by CT-110 (growth inhibition rank in NCI-60) (HT29): most sensitive
- sensitivity to Sigma1 inhibition by CT-110 (growth inhibition rank in NCI-60) (RPMI-8226): most resistant
- sensitivity to Sigma1 inhibition by CT-110 (growth inhibition rank in NCI-60) (UACC-257): most sensitive
- tumor growth T/C (MDAMB231): < 10%
- tumor growth T/C (BT474): 70%
